Measured values published in patent US10905683B2, “Compositions and uses of amidine derivatives” (BIOCRYST PHARMACEUTICALS, INC., priority 2014, dated 2021).
≈ marks a conversion by molar mass, not a printed value.

Legend:
[1] = Concentration achieved in formulations and excipient mixtures; assay type: physicochemical; details: in the (oral) pharmaceutical compositions described
Protocol: In initial formulation work for the amidine compounds described herein, in particular 3-[2-(4-carbamimidoyl-phenylcarbamoyl)-5-methoxy-4-vinyl-phenyl]-6-(cyclopropylmethyl-carbamoyl)-pyridine-2-carboxylic acid, extensive studies were carried out to identify a suitable mixture of excipients to produce the oral formulation described herein.
Specifically, a variety of approaches were taken to develop suitable oral formulations of 3-[2-(4-carbamimidoyl-phenylcarbamyl)-5-methoxy-4-vinyl-phenyl]-6-(cyclopropylmethyl-carbamoyl)-pyridine-2-carboxylic acid. The approaches taken included use of a variety of hydrophilic polymers, including α-cyclodextrin and a polyanionic 3-cyclodextrin derivative with a sodium sulfonate salt separated from the lipophilic cavity by a butyl ether or sulfobutylether spacer group in combination with a variety of co-solvents. In addition, the compound was evaluated in formulations created by a number of different technologies (such as dry blends, nanosuspensions, solid dispersion and emulsions) using a variety of approaches.

[2] = Polymorphic conversion of Form A under relative humidity; assay type: physicochemical; details: RH 43%, 75% and 100%, room temperature
Description: In another embodiment, pharmaceutical compositions of Form A, in particular the oral pharmaceutical compositions described herein, when administered to a subject provide for increased bioavailability of the compound as compared to amorphous 3-[2-(4-carbamimidoyl-phenylcarbamoyl)-5-methoxy-4-vinylphenyl]-6-(cyclopropylmethyl-carbamoyl)-pyridine-2-carboxylic acid and salts thereof and other crystalline forms. In another embodiment, pharmaceutical compositions of Form A, in particular the oral pharmaceutical compositions described herein, when administered to a subject for treating a condition, is sufficient to affect such treatment. In another embodiment, pharmaceutical compositions of Form A, in particular the oral pharmaceutical compositions described herein, when administered to a subject for treating a condition, is sufficient to affect such treatment when dosed 1 to 3 times per day or less (such as 1 to 2 times). In another embodiment, pharmaceutical compositions of Form A, in particular the oral pharmaceutical compositions described wherein when administered to a subject provide for a therapeutically effective amount of the compound of at least 10 ng/ml, at least 15 ng/ml or at least 25 ng/ml in the blood of the subject for a period of at least from two hours to four hours after administration to a subject. […]

[3] = Aqueous solubility assay in buffer and simulated gastric/intestinal fluids; details: 37 °C, thermodynamic from solid, Observed Solubility, Target 100 μM, 24 hours
Protocol: The target concentration in each solution was 100 μM. […] The aqueous solutions were added (1 mL) to the dried samples and mixed at 400 rpm at 37° C. on an orbital plate shaker. […] Samples were prepared in triplicate. Testosterone and verapamil were used as reference compounds.

[4] = octanol-PBS pH 7.4 partition coefficient (log D7.4) assay; assay type: physicochemical; details: octanol/0.01 M phosphate buffer pH 7.4, 24 hours, LC/MS/MS
Protocol: A 1 μL volume of a 1 mM stock solution of the compound in dimethyl sulfoxide (DMSO) was added to 500 μL 0.01 M phosphate buffer pH 7.4 (saturated with octanol) and 500 μL of octanol (saturated with 0.01 M phosphate buffer). […] Samples were prepared in triplicate.

## C=Cc1cc(C(=O)Nc2ccc(C(=N)N)cc2)c(-c2ccc(C(=O)NCC3CC3)nc2C(=O)O)cc1OC.Cl [Form A, 3-[2-(4-Carbamimidoylphenylcarbamoyl)-5-methoxy-4-vinylphenyl]-6-(cyclopropylmethylcarbamoyl)pyridine-2-carboxylic acid hydrochloride]
[1]
  concentration solubilized: greater than 140 mg/ml
[2]
  conversion to other polymorphic forms: not observed

## C[C@]12CC[C@H]3[C@@H](CCC4=CC(=O)CC[C@@]43C)[C@@H]1CC[C@@H]2O [Testosterone, reference compound]
[3]; fassgf or other biorelevant, Fasted-State SGF
  solubility at 24 h: 43 µM (≈ 12.4 µg/mL)
[3]; fassgf or other biorelevant, Fed-State SGF
  solubility at 24 h: 27 µM (≈ 7.79 µg/mL)
[3]; fassif, Fasted-State SIF
  solubility at 24 h: 35 µM (≈ 10.1 µg/mL)
[3]; fessif, Fed-State SIF
  solubility at 24 h: 36 µM (≈ 10.4 µg/mL)
[3]; pH 7.4, aqueous buffer, 0.1M phosphate buffer pH 7.4, 37° C.
  solubility at 24 h: 42 µM (≈ 12.1 µg/mL)

## C[C@@H]1C[C@H]2[C@@H]3CCC4=CC(=O)C=C[C@]4(C)[C@@]3(F)[C@@H](O)C[C@]2(C)[C@@]1(O)C(=O)CO [Dexamethasone, reference compound]
[4]
  logD at 24 h: 1.5
